Measurements as given in publication PMC9933440 (Crystal Growth & Design, 2022).

Tests used:
[1] = pKa (base) – pKa (acid)
[2] = ref 77 (4AP), ref 78 (4DMP), ref 79 (PPZ); cited from earlier work
physchem = details: pH 6.5
Protocol: Solubility experiments were conducted in sodium phosphate buffer solutions at pH 6.5 and 37 °C to simulate intestinal physiological conditions. For each experiment, an excess crystalline solid was sieved through a 300 μm sieve and introduced into a flask with a screw top containing 100 mL of the medium. The solution was stirred at 200 rpm using a magnetic stir bar for 48 h to reach the equilibrium state. […] After each sampling, the volume of the liquid removed from the suspension was not compensated. The withdrawn suspension was filtered through 0.2 μm nylon filters and diluted prior to high-performance liquid chromatography (HPLC) analysis. The solubility experiment for each crystal form was repeated in triplicate. After the last sample collection, the remaining solid material in the suspension was filtered, dried, and characterized by IR and PXRD.
A C18 HPLC column (YMC-Pack ODS-A column, 4.6 mm × 250 mm, 5 μm) with a flow rate of 1 mL min^–1 was employed, and the column temperature was set at 25 °C. The binary mobile phase consisted of acetonitrile and sodium phosphate buffer (pH 6.5) in a volume ratio of 25:75. The samples were diluted appropriately with the mobile phase, and the absorbance was measured at 347 nm.

[3] = pH <3; cited from earlier work

| Structure (SMILES) | ΔpKa for MEL ([1]; hydroxyl group of MEL) | ΔpKa for PRM ([1]; hydroxyl group of PRM) | pKa in water (salt former) [2] | time to highest solubility / maximum dissolved concentration / equilibrium (physchem) [min] | degradation at lower pH [3] |
| --- | --- | --- | --- | --- | --- |
| Nc1ccncc1 [4AP, 4-aminopyridine] | 8.08 | 7.31 | 9.17[77] |  |  |
| Cc1cnc(NC(=O)C2=C(O)c3ccccc3S(=O)(=O)N2C)s1 [MEL, meloxicam] |  |  |  | 90 | significant degradation |
